Experimental data taken from patent US20060040871A1, “Bacterial transforming agent” (priority 2003, published 2006).
Where two headings read alike, the source gives them in different places.

How the values were obtained:
[1] = tested on: MRSA; assay: Antimicrobial plus BTA against recent clinical MRSA isolates (Table 7); format: cell-based, Staphylococcus aureus
Excerpt: The four clinical isolates were isolated from patients during the first three months of 2003. […] An intermediate MRSA has been included, as methicillin-resistance has been achieved by means other than production of PBP2a.

[2] = tested on: VRE; assay: Antimicrobial plus BTA against VRE (Table 7); format: cell-based, enterococci
[3] = tested on: MRSA; assay: Screening on Isosensitest agar with incorporated BTA and 10 μg methicillin discs; format: cell-based, Staphylococcus aureus
Method: To find substances related to GBE that might have increased potency, various substances, including those with additional glycine moieties and benzylates, have been screened. Screening was carried out using Isosensitest agar (Oxoid, UK) into which various levels of potential BTAs were incorporated at levels between 0.01 and 1.0%. The agar with incorporated BTA was then used in the manner of a standard antibiotic sensitivity test using 10 μg methicillin discs. The test organism was inoculated onto the agar surface at a concentration suitable to achieve confluent growth after 18 hours incubation at 30° C. After incubation, zone diameters were compared with that achieved by the control plate (Isosensitest alone) for each test organism.

[4] = tested on: MRSA with intermediate resistance to glycopeptides; assay: MIC of vancomycin or teicoplanin for MRSA with intermediate resistance to glycopeptides grown with GBE or NAGly (Table 4); format: cell-based, Staphylococcus aureus; details: for MIC: Staphylococcus aureus
[5] = tested on: vancomycin- and gentamicin-resistant Enterococcus faecium; assay: microbe, parasite or virus in culture; format: cell-based; details: Enterococcus faecium, 0.0 (Control)
Excerpt: The agents of the present invention are not limited to the reversal of resistance in Staphylococcus. The test strains in Table 5 are patient-isolates of vancomycin- and gentamicin-resistant Enterococcus faecium. At the time of isolation, they were commonly resistant to all clinically useable antimicrobial agents.

[6] = tested on: vancomycin- and gentamicin-resistant Enterococcus faecium; assay: microbe, parasite or virus in culture; format: cell-based; details: ATCC29212, read-out: MIC of vancomycin, ATCC 29212 (vancomycin-sensitive reference strain), 0.0 (Control)
[7] = tested on: glycopeptide-resistant enterococci; details: cited from earlier work
[8] = tested on: vancomycin-resistant enterococci (VRE); assay: Activity of BTAs against vancomycin-resistant enterococci; format: cell-based
[9] = tested on: E. faecium; details: cited from earlier work
[10] = cited from earlier work
[11] = vanA, E. faecium and E. faecalis

Nc1ccc(C(=O)NCC(=O)O)cc1 [Amino-HA, P-Amino Hippuric acid]
Cephalexin (antimicrobial plus BTA; quantity not named, MIC implied) ([1]; EMRSA-16, +BTA 0.01%): 3 µg/mL
Oxacillin (antimicrobial plus BTA; quantity not named, MIC implied) ([1]; EMRSA-16, +BTA 0.01%): 3 µg/mL
Cephalexin (antimicrobial plus BTA; quantity not named, MIC implied) ([1]; EMRSA-16, +BTA 0.1%): 1 µg/mL
Oxacillin (antimicrobial plus BTA; quantity not named, MIC implied) ([1]; EMRSA-16, +BTA 0.1%): 0.75 µg/mL
Vancomycin (antimicrobial plus BTA; quantity not named, MIC implied) ([1]; EMRSA-16, +BTA 0.1%): 0.25 µg/mL
Cephalexin (antimicrobial plus BTA; quantity not named, MIC implied) ([1]; EMRSA-17, +BTA 0.01%): 6 µg/mL
Oxacillin (antimicrobial plus BTA; quantity not named, MIC implied) ([1]; EMRSA-17, +BTA 0.01%): 6 µg/mL
Cephalexin (antimicrobial plus BTA; quantity not named, MIC implied) ([1]; EMRSA-17, +BTA 0.1%): 4 µg/mL
Oxacillin (antimicrobial plus BTA; quantity not named, MIC implied) ([1]; EMRSA-17, +BTA 0.1%): 1 µg/mL
Vancomycin (antimicrobial plus BTA; quantity not named, MIC implied) ([1]; EMRSA-17, +BTA 0.1%): 0.25 µg/mL
Cephalexin (antimicrobial plus BTA; quantity not named, MIC implied) ([1]; I-MRSA, +BTA 0.01%): 1.5 µg/mL
Oxacillin (antimicrobial plus BTA; quantity not named, MIC implied) ([1]; I-MRSA, +BTA 0.01%): 1.5 µg/mL
Cephalexin (antimicrobial plus BTA; quantity not named, MIC implied) ([1]; I-MRSA, +BTA 0.1%): 0.064 µg/mL
Oxacillin (antimicrobial plus BTA; quantity not named, MIC implied) ([1]; I-MRSA, +BTA 0.1%): 0.064 µg/mL
Vancomycin (antimicrobial plus BTA; quantity not named, MIC implied) ([1]; I-MRSA, +BTA 0.1%): < 0.25 µg/mL
Vancomycin (antimicrobial plus BTA; quantity not named, MIC implied) ([2]; +BTA 0.1%): 64 µg/mL
activity relative to Hippuric acid and GBE [3]: improved activity

CCOC(=O)CNC(=O)CN [GGEE, Glycylglycine ethyl ester]
Oxacillin (antimicrobial plus BTA; quantity not named, MIC implied) ([1]; EMRSA-16, +BTA 0.01%): 1.5 µg/mL
Cephalexin (antimicrobial plus BTA; quantity not named, MIC implied) ([1]; EMRSA-16, +BTA 0.1%): 1.5 µg/mL
Oxacillin (antimicrobial plus BTA; quantity not named, MIC implied) ([1]; EMRSA-16, +BTA 0.1%): 1 µg/mL
Cephalexin (antimicrobial plus BTA; quantity not named, MIC implied) ([1]; EMRSA-16, +BTA 1.0%): 0.75 µg/mL
Oxacillin (antimicrobial plus BTA; quantity not named, MIC implied) ([1]; EMRSA-16, +BTA 1.0%): 0.75 µg/mL
Vancomycin (antimicrobial plus BTA; quantity not named, MIC implied) ([1]; EMRSA-16, +BTA 1.0%): 0.25 µg/mL
Oxacillin (antimicrobial plus BTA; quantity not named, MIC implied) ([1]; EMRSA-17, +BTA 0.01%): 3 µg/mL
Cephalexin (antimicrobial plus BTA; quantity not named, MIC implied) ([1]; EMRSA-17, +BTA 0.1%): 2 µg/mL
Oxacillin (antimicrobial plus BTA; quantity not named, MIC implied) ([1]; EMRSA-17, +BTA 0.1%): 2 µg/mL
Cephalexin (antimicrobial plus BTA; quantity not named, MIC implied) ([1]; EMRSA-17, +BTA 1.0%): 1 µg/mL
Oxacillin (antimicrobial plus BTA; quantity not named, MIC implied) ([1]; EMRSA-17, +BTA 1.0%): 1 µg/mL
Vancomycin (antimicrobial plus BTA; quantity not named, MIC implied) ([1]; EMRSA-17, +BTA 1.0%): 0.25 µg/mL
Oxacillin (antimicrobial plus BTA; quantity not named, MIC implied) ([1]; I-MRSA, +BTA 0.01%): 1 µg/mL
Cephalexin (antimicrobial plus BTA; quantity not named, MIC implied) ([1]; I-MRSA, +BTA 0.1%): 0.75 µg/mL
Oxacillin (antimicrobial plus BTA; quantity not named, MIC implied) ([1]; I-MRSA, +BTA 0.1%): 0.75 µg/mL
Cephalexin (antimicrobial plus BTA; quantity not named, MIC implied) ([1]; I-MRSA, +BTA 1.0%): 0.38 µg/mL
Oxacillin (antimicrobial plus BTA; quantity not named, MIC implied) ([1]; I-MRSA, +BTA 1.0%): 0.32 µg/mL
Vancomycin (antimicrobial plus BTA; quantity not named, MIC implied) ([1]; I-MRSA, +BTA 1.0%): < 0.25 µg/mL
Vancomycin (antimicrobial plus BTA; quantity not named, MIC implied) ([2]; +BTA 1.0%): 64 µg/mL
activity against VRE and MRSA relative to glycylglycine benzyl ester ([3]; VRE and MRSA): greater activity

CN[C@H](CC(C)C)C(=O)N[C@H]1C(=O)N[C@@H](CC(N)=O)C(=O)N[C@H]2C(=O)N[C@H]3C(=O)N[C@H](C(=O)N[C@H](C(=O)O)c4cc(O)cc(O)c4-c4cc3ccc4O)[C@H](O)c3ccc(c(Cl)c3)Oc3cc2cc(c3O[C@@H]2O[C@H](CO)[C@@H](O)[C@H](O)[C@H]2O[C@H]2C[C@](C)(N)[C@H](O)[C@H](C)O2)Oc2ccc(cc2Cl)[C@H]1O [vancomycin]
MIC ([4]; MRSA / NCTC 12493, read-out: MIC of vancomycin, NCTC 12493, Control): 0.5 µg/mL
MIC ([4]; MRSA / NCTC 12493, read-out: MIC of vancomycin, reference strain NCTC 12493, as stated in text on Table 1): 2 µg/mL
MIC ([4]; MRSA / VISA, read-out: MIC of vancomycin, L266 (first line), EMRSA-17 (VISA), Control): 8 µg/mL
MIC ([4]; MRSA / VISA, read-out: MIC of vancomycin, L266 (second line), EMRSA-17 (VISA), Control): 8 µg/mL
MIC ([5]; read-out: MIC of vancomycin, BBC): 32 µg/mL
MIC ([5]; read-out: MIC of vancomycin, E254): 128 µg/mL
MIC ([5]; read-out: MIC of vancomycin, E267): 128 µg/mL
MIC ([5]; read-out: MIC of vancomycin, E271): 64 µg/mL
MIC ([5]; read-out: MIC of vancomycin, E285): 64 µg/mL
MIC ([5]; read-out: MIC of vancomycin, E297): 128 µg/mL
MIC ([5]; read-out: MIC of vancomycin, GBC): 64 µg/mL
MIC ([5]; read-out: MIC of vancomycin, S226): 128 µg/mL
MIC ([5]; read-out: MIC of vancomycin, S227): 128 µg/mL
MIC ([5]; read-out: MIC of vancomycin, S283): 64 µg/mL
MIC ([5]; read-out: MIC of vancomycin, S302): 64 µg/mL
MIC ([5]; read-out: MIC of vancomycin, S315): 64 µg/mL
MIC ([5]; read-out: MIC of vancomycin, S317): 128 µg/mL
MIC ([5]; read-out: MIC of vancomycin, S319): 64 µg/mL
MIC ([5]; read-out: MIC of vancomycin, S333): 64 µg/mL
MIC ([5]; read-out: MIC of vancomycin, S337): 32 µg/mL
MIC ([5]; read-out: MIC of vancomycin, S393): 64 µg/mL
MIC ([5]; read-out: MIC of vancomycin, S497): 64 µg/mL
MIC ([5]; read-out: MIC of vancomycin, S556): 64 µg/mL
MIC ([5]; read-out: MIC of vancomycin, WBC): 64 µg/mL
Vancomycin (antimicrobial plus BTA; quantity not named, MIC implied) ([1]; EMRSA-16, vancomycin alone): 1 µg/mL
Vancomycin (antimicrobial plus BTA; quantity not named, MIC implied) ([1]; EMRSA-17, vancomycin alone): 2 µg/mL
Vancomycin (antimicrobial plus BTA; quantity not named, MIC implied) ([1]; I-MRSA, vancomycin alone): 0.5 µg/mL
Vancomycin (antimicrobial plus BTA; quantity not named, MIC implied) ([2]; vancomycin alone): > 256 µg/mL
MIC [6]: 2 µg/mL
level of vancomycin to which resistance is conferred [7, 11]: ≥ 256 mg/L
level of vancomycin to which resistance is conferred ([7]; vanE, E. faecalis): 16 mg/L

N-carbamoylglycine (Hydantoic acid)
activity against vancomycin-resistant enterococci (VRE) [8]: low-level active

quinupristin/dalfopristin
E. faecium isolates against which active (MIC≦2 mg/L) [9]: 86%

teicoplanin
MIC of teicoplanin ([4]; L265, EMRSA-16 (TISA), Control): 32 µg/mL
MIC of teicoplanin ([4]; L266, EMRSA-16 (TISA), Control): 8 µg/mL
MIC of teicoplanin ([4]; NCTC 12493, Control): 0.25 µg/mL
level of teicoplanin to which resistance is conferred [7, 11]: ≥ 32 mg/L
level of teicoplanin to which resistance is conferred ([7]; vanB): ≤ 1.0
level of teicoplanin to which resistance is conferred ([7]; vanC1, vanC2, vanC3): ≤ 1.0
level of teicoplanin to which resistance is conferred ([7]; vanE, E. faecalis): 0.5 mg/L
half life [10]: 12 h
